Data published in paper PMC8348686, “The Pharmacological Profile of Second Generation Pyrovalerone Cathinones and Related Cathinone Derivative” (International Journal of Molecular Sciences, 2021).

Experiments:
hDAT = hDAT (Homo sapiens, UniProt Q01959); experiment: Transporter binding, [3H]-WIN-35,428
adrenergic α1A receptor = target: T1, adrenergic α1A receptor (Homo sapiens, UniProt P35348); experiment: Receptor binding, [3H]-prazosin
T1 sequence (P35348 1-466): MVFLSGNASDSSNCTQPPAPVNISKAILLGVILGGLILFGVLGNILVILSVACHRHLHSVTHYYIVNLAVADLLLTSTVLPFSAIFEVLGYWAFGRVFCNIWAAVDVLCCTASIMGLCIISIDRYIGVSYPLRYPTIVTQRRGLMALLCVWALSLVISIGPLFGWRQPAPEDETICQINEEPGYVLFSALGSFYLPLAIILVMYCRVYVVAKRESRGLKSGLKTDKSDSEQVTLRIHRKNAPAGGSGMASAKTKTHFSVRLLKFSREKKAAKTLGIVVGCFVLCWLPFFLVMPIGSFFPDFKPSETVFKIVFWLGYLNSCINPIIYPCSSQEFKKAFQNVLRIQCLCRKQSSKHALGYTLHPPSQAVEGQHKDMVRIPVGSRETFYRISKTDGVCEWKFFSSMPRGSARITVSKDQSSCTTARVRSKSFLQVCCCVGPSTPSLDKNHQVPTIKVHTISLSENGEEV

hSERT = hSERT (Homo sapiens, UniProt P31645); experiment: Transporter binding, [3H]-citalopram
h5-HT2A receptor [1] = target: T2, h5-HT2A receptor (Homo sapiens, UniProt P28223); design: expressed in transfected cells; host or cells: HEK293 cell preparations; method as in Rickli et al. (2015); conditions: read-out: h5-HT2A Activation Potency EC50 ± SD; ref Rickli et al. (2015); cited from earlier work
h5-HT2A receptor [2] = target: T2, h5-HT2A receptor; design: expressed in transfected cells; host or cells: HEK293 cell preparations; conditions: read-out: h5-HT2A Receptor Binding Ki ± SD; [3H]-Ketanserin; ref Rickli et al. (2015); cited from earlier work

T2 sequence (P28223 whole entry): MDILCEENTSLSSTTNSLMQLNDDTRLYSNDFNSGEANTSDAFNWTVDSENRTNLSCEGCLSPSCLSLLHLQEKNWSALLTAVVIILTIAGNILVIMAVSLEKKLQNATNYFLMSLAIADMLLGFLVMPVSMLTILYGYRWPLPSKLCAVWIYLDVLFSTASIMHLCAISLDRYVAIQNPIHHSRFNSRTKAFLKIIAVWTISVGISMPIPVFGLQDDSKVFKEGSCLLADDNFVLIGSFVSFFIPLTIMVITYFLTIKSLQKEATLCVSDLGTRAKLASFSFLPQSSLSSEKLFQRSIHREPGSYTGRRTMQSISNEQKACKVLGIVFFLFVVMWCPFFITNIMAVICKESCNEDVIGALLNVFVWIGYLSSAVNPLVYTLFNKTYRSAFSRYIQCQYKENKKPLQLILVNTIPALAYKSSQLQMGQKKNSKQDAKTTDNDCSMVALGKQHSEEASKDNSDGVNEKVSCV
Chain of hSERT (P31645 whole entry): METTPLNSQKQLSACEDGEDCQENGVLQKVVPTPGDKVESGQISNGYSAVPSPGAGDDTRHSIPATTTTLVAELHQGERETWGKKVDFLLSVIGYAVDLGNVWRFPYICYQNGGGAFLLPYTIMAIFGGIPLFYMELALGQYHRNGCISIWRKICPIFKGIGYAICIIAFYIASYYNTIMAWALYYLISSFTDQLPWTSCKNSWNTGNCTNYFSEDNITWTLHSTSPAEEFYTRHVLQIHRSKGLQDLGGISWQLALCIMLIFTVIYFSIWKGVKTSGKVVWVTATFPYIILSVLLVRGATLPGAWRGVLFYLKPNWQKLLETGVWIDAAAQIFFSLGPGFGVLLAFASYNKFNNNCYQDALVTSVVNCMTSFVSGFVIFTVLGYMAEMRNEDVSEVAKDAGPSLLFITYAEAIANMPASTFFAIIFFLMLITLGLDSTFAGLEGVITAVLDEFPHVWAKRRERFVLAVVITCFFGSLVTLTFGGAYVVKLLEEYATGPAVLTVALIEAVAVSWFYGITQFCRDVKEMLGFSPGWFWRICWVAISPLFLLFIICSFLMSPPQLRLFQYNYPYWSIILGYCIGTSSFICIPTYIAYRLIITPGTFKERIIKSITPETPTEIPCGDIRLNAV
Chain of hDAT (Q01959 whole entry): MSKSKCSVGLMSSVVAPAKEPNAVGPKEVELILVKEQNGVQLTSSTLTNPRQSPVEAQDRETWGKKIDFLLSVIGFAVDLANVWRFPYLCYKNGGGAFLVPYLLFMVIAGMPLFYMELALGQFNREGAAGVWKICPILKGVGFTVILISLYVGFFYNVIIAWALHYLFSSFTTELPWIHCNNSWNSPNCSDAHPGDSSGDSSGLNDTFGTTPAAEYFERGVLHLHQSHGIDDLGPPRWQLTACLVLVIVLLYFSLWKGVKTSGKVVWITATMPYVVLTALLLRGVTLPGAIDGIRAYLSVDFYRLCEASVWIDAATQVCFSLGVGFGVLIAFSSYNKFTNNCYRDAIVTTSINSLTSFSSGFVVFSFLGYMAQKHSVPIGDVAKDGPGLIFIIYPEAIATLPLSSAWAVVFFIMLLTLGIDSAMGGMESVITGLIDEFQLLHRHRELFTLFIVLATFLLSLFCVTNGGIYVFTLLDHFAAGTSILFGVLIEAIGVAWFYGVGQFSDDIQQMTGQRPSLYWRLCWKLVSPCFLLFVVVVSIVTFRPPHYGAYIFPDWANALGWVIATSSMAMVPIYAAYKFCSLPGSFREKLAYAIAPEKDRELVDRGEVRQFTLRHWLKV

SMILES: Cc1ccc(C(=O)C(C)N2CCCC2)cc1 (stereo not drawn) [4-MePPP, 4-methyl-α-pyrrolidinopropiophenone]
- Ki (hDAT): 0.3 ± 0.02 µM
- Ki (adrenergic α1A receptor): 2.2 ± 0.1 µM
- Ki (hSERT): > 7.4 µM

SMILES: CNC(C)Cc1ccc2c(c1)OCO2 (centres unmarked) [MDMA, 3,4-methylenedioxymethamphetamine, reference compound]
- EC50 (h5-HT2A receptor [1]): 6.1 ± 0.3 µM
- Ki (h5-HT2A receptor [2]): 6.3 ± 2.4 µM
